Data reported in PubChem BioAssay (NCI).
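Five compound concentrations were applied to cells in 96-well plates for 48 hours; endpoints were derived by simple linear interpolation of the resulting dose-response curve. The concentration for full growth arrest is given as TGI.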

Tests used:
Test in all cases: NCI-60 cell line screen, 48 h
[1] = system: A549 NSCLC
[2] = system: ACHN renal
[3] = system: HS 578T breast
[4] = system: K-562 leukemia
[5] = system: MALME-3M melanoma
[6] = system: MCF7 breast
[7] = system: MDA-MB-435
[8] = system: MOLT-4 leukemia
[9] = system: NCI-H460 lung
[10] = system: NCI-H522 lung
[11] = system: NCI/ADR-RES ovarian
[12] = system: OVCAR-8 ovarian
[13] = system: SF-295 CNS
[14] = system: SK-MEL-2 melanoma
[15] = system: SK-MEL-5 melanoma
[16] = system: SK-OV-3 ovarian
[17] = system: SNB-19 CNS
[18] = system: TK-10 renal
[19] = system: RXF 393 renal

Row | Structure (SMILES) | TGI [1] | TGI [2] | TGI [3] | TGI [4] | TGI [5] | TGI [6] | TGI [7] | TGI [8] | TGI [9] | TGI [10] | TGI [11] | TGI [12] | TGI [13] | TGI [14] | TGI [15] | TGI [16] | TGI [17] | TGI [18] | TGI [19]
1 | Cc1ccc(S(=O)(=O)N/N=C2/CCC3(O)CC2(C)CCC2[C@H]3CC2(C)C)cc1 (some centres undefined) | > 100 µM | > 100 µM | > 100 µM | 90.7 µM | > 100 µM | > 100 µM | 57.7 µM | 45.2 µM | 64.3 µM | 91.9 µM | > 100 µM | > 100 µM | 93 µM | 69.2 µM | 33.1 µM | > 100 µM | > 100 µM | > 100 µM | 
2 | CCCc1nc2c(n1CC)C(=O)c1ccccc1C2=O | > 100 µM | > 100 µM | > 100 µM | > 100 µM | 60.5 µM | > 100 µM | 32.3 µM | > 100 µM | > 100 µM | > 100 µM | 78.7 µM |  | > 100 µM |  | 88.7 µM | > 100 µM | > 100 µM | > 100 µM | 69.1 µM
3 | CC(=O)N1C(Nc2nccs2)CCN1c1ccccc1 (centres undefined) | > 10 µM | > 10 µM | > 10 µM | > 10 µM | > 10 µM | > 10 µM | > 10 µM | > 10 µM | > 10 µM |  | > 10 µM | > 10 µM | > 10 µM | > 10 µM | > 10 µM |  | > 10 µM | > 10 µM | > 10 µM
4 | CC(Cn1c2c(c3cc(O)ccc31)CCc1ccc(O)cc1-2)N(C)C (centres undefined) |  | 30.1 µM | 46 µM | > 100 µM | 30.8 µM | 36.3 µM | 41 µM | > 100 µM | 31.8 µM |  | 41.9 µM | 33.2 µM | 45.4 µM | 31.1 µM |  | 77 µM | 37.4 µM | 37.1 µM | 53.2 µM
5 | Cc1nn(C(=O)c2ccncc2)c2c1C(c1ccccc1[N+](=O)[O-])SC(N)=N2 (centres undefined) | > 10 µM | > 10 µM | > 10 µM | > 10 µM | > 10 µM | > 10 µM | > 10 µM | > 10 µM | > 10 µM |  | > 10 µM | > 10 µM | > 10 µM | > 10 µM | > 10 µM |  | > 10 µM | > 10 µM | > 10 µM
6 | Cc1ccc(C(=O)Oc2ccccc2)cc1N=NN(C)C | > 100 µM | > 100 µM | > 100 µM | > 100 µM | > 100 µM | > 100 µM | > 100 µM | > 100 µM | > 100 µM | > 100 µM | > 100 µM | > 100 µM | > 100 µM | > 100 µM | > 100 µM | > 100 µM | > 100 µM | > 100 µM | 
7 | CC(C)[Si]1(C(C)C)OCC2OC(n3ccc(=O)[nH]c3=O)C([Se]c3ccccc3)C2O[Si](C(C)C)(C(C)C)O1 (centres undefined) | 22.1 µM | 6.59 µM | 5.46 µM |  | 8.93 µM | 8.27 µM | 17.3 µM | > 22.9 µM | 3.89 µM | 4.36 µM | 26.7 µM | 10.7 µM | 18 µM | 20.1 µM | 9.59 µM | 31.2 µM | 0.677 µM | 19.9 µM | 9.65 µM
8 | CCc1n[nH]c(=O)n1/N=C(\C)c1ccccc1 | > 100 µM | > 100 µM | > 100 µM | > 100 µM | > 100 µM | > 100 µM | > 100 µM | > 100 µM |  | > 100 µM | > 100 µM | > 100 µM | > 100 µM | > 100 µM | > 100 µM |  | > 100 µM | > 100 µM | > 100 µM
9 | Cn1nnc2c3c(N(CCO)CCO)ccnc3ccc21 | > 100 µM | > 100 µM | > 100 µM | > 100 µM | > 100 µM | > 100 µM | > 100 µM | > 100 µM | > 100 µM |  | > 100 µM | > 100 µM | > 100 µM | > 100 µM | > 100 µM | > 100 µM | > 100 µM | > 100 µM | > 100 µM
10 | CC(=O)/C(=C\I)c1ccccc1 | 30 µM |  | 40.5 µM | 4.61 µM | 3.33 µM | 4.05 µM | 12.8 µM | 5.35 µM | 24.7 µM |  | 25 µM | 3.45 µM | 33.7 µM | 4.75 µM |  | 26.5 µM | 24.5 µM | 26.8 µM | 3.36 µM
11 | Cc1cc(NS(=O)(=O)c2ccc(N=[N+]([O-])c3ccc(S(=O)(=O)Nc4cc(C)on4)cc3)cc2)no1 | > 100 µM | > 100 µM | > 100 µM | > 100 µM | > 100 µM | > 100 µM | > 100 µM | > 100 µM |  | > 100 µM | > 100 µM | > 100 µM | > 100 µM | > 100 µM | > 100 µM | > 100 µM | > 100 µM | > 100 µM | > 100 µM
12 | Cc1c(/C=N/NC(=S)N2CCCCC2)c(=O)n(-c2ccccc2)n1C | > 100 µM | 98.5 µM | > 100 µM | > 100 µM | > 100 µM | > 100 µM | > 100 µM | > 100 µM | > 100 µM | > 100 µM | > 100 µM | > 100 µM | > 100 µM |  | > 100 µM | > 100 µM | > 100 µM | > 100 µM | 97.3 µM
13 | CC(C)[C@H]1NC(=O)[C@H]2N=C(S[C@H]2C)[C@@H]2CCCN2C(=O)[C@H](Cc2ccccc2)NC(=O)[C@@H]2CSC(=N2)[C@@H](Cc2ccccc2)NC(=O)[C@@H]2CSC1=N2 | > 50 µM | > 50 µM | 47 µM | 23.9 µM | > 50 µM | > 50 µM | > 50 µM | 29.5 µM |  | 45 µM | > 50 µM | > 50 µM | > 50 µM | > 50 µM | > 50 µM | > 50 µM | > 50 µM | > 50 µM | > 50 µM
14 | CC(C)(C)O/N=C/c1cc(NC(=S)c2ccsc2)ccc1Cl | 63.8 µM |  | 57 µM |  | 31.5 µM | 24.8 µM | 38.5 µM | 26.1 µM |  | 33.6 µM | 33.9 µM | 29.7 µM | 25.3 µM | 29.5 µM | 16.9 µM | 46.8 µM |  | 26.6 µM | 36.8 µM
15 | CC(C)OP(=O)(OC(C)C)C(C)(C)O | > 100 µM | > 100 µM | > 100 µM | > 100 µM | > 100 µM | > 100 µM | > 100 µM | > 100 µM |  | > 100 µM | > 100 µM | > 100 µM | > 100 µM | > 100 µM | > 100 µM | > 100 µM | > 100 µM | > 100 µM | > 100 µM
16 | COc1ccc(COCC[C@H](C)OC2OC(CO)C(O)C(O)C2O)cc1 (some centres undefined) | > 100 µM | > 100 µM | > 100 µM | > 100 µM |  | > 100 µM | > 100 µM | > 100 µM | > 100 µM | > 100 µM | > 100 µM | > 100 µM | > 100 µM | > 100 µM | > 100 µM | > 100 µM | > 100 µM | > 100 µM | > 100 µM
17 | NC(=O)[N+](=CC(=S)Nc1ccccc1Cl)C(N)=O | > 100 µM | > 100 µM | > 100 µM | > 100 µM |  | > 100 µM | > 100 µM | > 100 µM | > 100 µM | > 100 µM | > 100 µM | > 100 µM | > 100 µM | > 100 µM | > 100 µM | > 100 µM | > 100 µM | > 100 µM | > 100 µM
18 | O=C(Nc1ccccc1)OCCN=C1c2ccccc2CCc2ccccc21 | > 100 µM | 70.1 µM | 51.5 µM | 60.9 µM | 57.9 µM | 57.8 µM | 43.6 µM | 31.1 µM | 44.4 µM |  | 72.4 µM | > 100 µM | 34.1 µM | 30.3 µM | 27.3 µM | 92.3 µM | 43.7 µM | > 100 µM | 50.2 µM
19 | COc1cc2cc(C(=O)N3CC(CCl)c4ccc([N+](C)(C)Cc5ccccc5[N+](=O)[O-])cc43)[nH]c2c(OC)c1OC (centres undefined) | > 100 µM | > 100 µM | 11.7 µM | 12.5 µM | 3.59 µM | > 100 µM | 5.17 µM | 2.74 µM |  | 0.677 µM | 34.2 µM | > 25.5 µM | 36.5 µM | 4.44 µM | 3.3 µM | 30.1 µM | 9.76 µM | > 100 µM | 2.11 µM
20 | CCSC1=N/C(=C\c2ccco2)C(=O)N1 | > 100 µM | > 100 µM | > 100 µM | > 100 µM | > 100 µM | > 100 µM | > 100 µM | > 100 µM |  | > 100 µM | > 100 µM | > 100 µM | > 100 µM | > 100 µM | > 100 µM | > 100 µM | > 100 µM | > 100 µM | 
21 | C=CCN1CCC(c2cc(C(=O)OCC)[nH]c2-c2cc(C)no2)C1=O (centres undefined) | > 100 µM |  | > 100 µM | > 100 µM | > 100 µM | > 100 µM | > 100 µM | > 100 µM | > 100 µM |  | > 100 µM | > 100 µM | > 100 µM | > 100 µM | > 100 µM | > 100 µM | > 100 µM |  | > 100 µM
